Data from patent US20200377496A1, “INDOLE AND BENZIMIDAZOLE DERIVATIVES AS DUAL 5-HT2A and 5-HT6 RECEPTOR ANTAGONISTS” (ADAMED PHARMA, S.A., priority 2018, published 2020).
Like-named read-outs stand apart in the source and are kept apart here.

Experiments:
5-HT6 receptors = 5-HT6 receptors (Homo sapiens, UniProt P50406); experiment: 5-HT6 receptor binding assay ([3H]-LSD radioligand); conditions: membranes from CHO-K1 cells with human 5-HT6 receptor, [3H]-LSD 1 nM
Description: (§1) Preparation of Solutions of Test and Reference Compounds.
1 mM stock solutions of tested compounds were prepared in DMSO. Serial dilutions of compounds were prepared in 96-well microplate in assay buffers using automated pipetting system epMotion 5070 (Eppendorf). Each compound was tested in 10 concentrations from 1.0E-6 to 1.0E-11 M (final concentration).
5-HT6 Receptor Binding Assay.
Radioligand binding was performed using membranes from CHO-K1 cells stably transfected with the human 5-HT6 receptor (PerkinElmer). All assays were carried out in duplicates. 50 μl working solution of the tested compounds, 50 μl [3H]-LSD (final concentration 1 nM) and 150 μl diluted membranes (8 μg protein per well) prepared in assay buffer (50 mM Tris, pH 7.4, 10 mM MgCl2, 0.1 mM EDTA) were transferred to polypropylene 96 well microplate using 96-wells pipetting station Rainin Liquidator (MettlerToledo). Methiothepin (10 μM) was used to define nonspecific binding. Microplate was covered with a sealing tape, mixed and incubated for 60 minutes at 37° C. The reaction was terminated by rapid filtration through GF/A filter mate presoaked with 0.5% polyethyleneimine for 30 minutes. Ten rapid washes with 200 μl 50 mM Tris buffer (4° C., pH 7.4) were performed using automated harvester system Harvester-96 MACH III FM (Tomtec). The filter mates were dried at 37° C. in forced air fan incubator and then solid scintilator MeltiLex was melted on filter mates at 90° C. for 5 minutes. Radioactivity was counted in MicroBeta2 scintillation counter (PerkinElmer). Data were fitted to a one-site curve-fitting equation with Prism 6 (GraphPad Software) and Ki values were estimated from the Cheng-Prusoff equation.

human GPCR 5-HT2A = human GPCR 5-HT2A (Homo sapiens, UniProt P28223); experiment: Cellular aequorin-based functional assay, 5-HT2A; format: cell-based; conditions: for 5-HT2A AGO EC50 [nM]: agonist mode, CHO-K1 aequorin cells
Description: as §1
1 mM stock solutions of the tested compounds were prepared in DMSO. Serial dilutions were prepared in 96-well microplate in assay buffers using automated pipetting system epMotion 5070 (Eppendorf). Two independent experiments in duplicates were performed and 6 to 10 concentrations were tested.
5-HT2A and 5-HT6 Functional Activity Assays.
Cellular aequorin-based functional assays were performed with γ-irradiated recombinant CHO-K1 cells expressing mitochondrially-targeted Aequorin, human GPCR (5-HT2A or 5-HT6) and the promiscuous G protein α16 (PerkinElemer). Assays were performed according to the standard protocol provided by the manufacturer. After thawing, cells were transferred to assay buffer (DMEM/HAM's F12 with 0.1% protease-free BSA) and centrifuged. Cell pellet was resuspended in assay buffer and coelenterazine h was added at final concentrations of 5 μM. Cell suspension was incubated at 21° C., protected from light with constant agitation, for 4 hours and then diluted with assay buffer to a concentration of 250,000 cells/ml. After 1 hour incubation 50 yl cell suspension was dispensed using automatic injectors built in radiometric and luminescence plate counter MicroBeta2 LumiJET (PerkinElmer, USA) into white opaque 96-well microplate preloaded with tested compounds. Immediate light emission generated following calcium mobilization was recorded for 30-60 seconds. In antagonist mode, after 15-30 minutes incubation reference agonist was added to the above assay mix and light emission was recorded again. Final concentration of reference agonist was equal EC80: serotonin 40 nM for 5-HT6 receptor and α-methylserotonin 30 nM for 5-HT2A receptor. The assays were performed in the agonist mode (5-HT6 AGO and 5-HT2A AGO) as well as antagonist mode (5-HT6 ANT and 5-HT2A ANT).
IC50 and EC50 were determined by non-linear regression analysis using GraphPad Prism 6.0 software. The log IC50 was used to obtain the Kb by applying the Cheng-Prusoff approximation.

[1] = tested on: scopolamine-induced deficits in learning and memory; experiment: Scopolamine-induced deficits in step-through passive avoidance test in Wistar rats; format: in vivo; conditions: hydrochloride salt p.o. 180 min before training; scopolamine 0.3 mg/kg i.p.; male Wistar rats
Description: Biological Example 4. Effects of Compounds 1 and 17, on Scopolamine-Induced Deficits in Learning and Memory in the Passive Avoidance Test in Wistar Rats
Drug-naive male Wistar rats (Charles River, Sulzfeld, Germany) were used. Rats were housed four per standard plastic cage and kept in a room with constant environmental conditions (22±1° C., relative humidity 60%, a 12:12 light-dark cycle with lights on at 7:00 a.m.). Animals were supplied by the breeder 2-3 weeks before the onset of behavioral procedures. During this time, the subjects were weighted and handled several times. […]
Effects of tested compounds on learning and memory function were evaluated using a step-through passive avoidance test (Ishiyama et al., 2007). […]
In the training (acquisition) session, the animals were individually placed in the lighted compartment and allowed to explore it freely for 10 s. The sliding door was then opened, and the step-through latency for animals to enter the dark compartment was measured with a 300-s cut-off time. […]
The test (expression) session was performed 24 h after the training session using the same paradigm but without any foot-shock or drug injections. Step-through latencies for animals to enter the dark compartment were measured with a 300-s cut-off time. […]
Body weights (g) and training/test latencies (s) were analyzed with the aid of a one-way analysis of variance (ANOVA). […]

Sequence of human GPCR 5-HT2A (P28223 whole entry): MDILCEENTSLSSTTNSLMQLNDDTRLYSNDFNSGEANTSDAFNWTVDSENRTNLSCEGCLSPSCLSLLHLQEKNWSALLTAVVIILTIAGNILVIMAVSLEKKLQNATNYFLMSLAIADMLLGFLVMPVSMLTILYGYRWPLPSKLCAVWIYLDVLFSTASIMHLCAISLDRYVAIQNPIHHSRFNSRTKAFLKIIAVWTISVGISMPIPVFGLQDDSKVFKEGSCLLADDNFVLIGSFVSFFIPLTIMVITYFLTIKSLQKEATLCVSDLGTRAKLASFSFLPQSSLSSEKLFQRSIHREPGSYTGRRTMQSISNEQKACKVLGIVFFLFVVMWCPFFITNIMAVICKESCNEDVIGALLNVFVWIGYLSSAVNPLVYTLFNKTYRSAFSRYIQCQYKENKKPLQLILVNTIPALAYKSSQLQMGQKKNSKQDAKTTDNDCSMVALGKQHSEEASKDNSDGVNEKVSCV
Sequence of 5-HT6 receptors (P50406 whole entry): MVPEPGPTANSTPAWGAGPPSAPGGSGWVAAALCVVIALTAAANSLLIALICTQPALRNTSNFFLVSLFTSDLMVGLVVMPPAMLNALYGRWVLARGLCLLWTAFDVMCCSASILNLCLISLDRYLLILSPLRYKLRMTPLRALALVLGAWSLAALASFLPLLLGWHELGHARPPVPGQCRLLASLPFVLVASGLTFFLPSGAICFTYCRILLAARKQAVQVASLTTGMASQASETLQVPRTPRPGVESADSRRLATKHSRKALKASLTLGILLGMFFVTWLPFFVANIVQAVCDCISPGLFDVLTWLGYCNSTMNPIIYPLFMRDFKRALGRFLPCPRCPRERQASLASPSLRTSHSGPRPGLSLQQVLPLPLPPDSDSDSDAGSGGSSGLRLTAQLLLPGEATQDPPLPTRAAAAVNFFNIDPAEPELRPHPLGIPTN

SMILES | Ki (5-HT6 receptors) [nM] | 5-HT2A AGO EC50 [nM] (human GPCR 5-HT2A) | Kb (human GPCR 5-HT2A; antagonist mode, reference agonist α-methylserotonin 30 nM (EC80), read-out: 5-HT2A ANT Kb) [nM] | minimal effective dose, elongation of step-through latencies in test session [1] [mg/kg] | Kb (human GPCR 5-HT2A) [nM]
FC(F)(F)c1nc2c(N3CCNCC3)cccc2n1Cc1ccccc1 [Compound 1, 1-benzyl-4-(piperazin-1-yl)-2-(trifluoromethyl)-1H-benzimidazole] | 1.3 | N.C. | 18 | 3.0 | 
FC(F)(F)c1cc2c(N3CCNCC3)cccc2n1Cc1ccco1 [Compound 17, 1-(furan-2-ylmethyl)-4-(piperazin-1-yl)-2-(trifluoromethyl)-1H-indole] | 0.62 | N.C. |  | 1.0 | 10
